Consider 12 molecules from patent publication US9328138B2 (priority 2011, dated 2016).

In assay [1] the target is HCV NS3 protease genotype 3a (3A-1) (Hepatitis C virus genotype 3a, UniProt Q81258). As to the kind of experiment: HCV NS3 protease time-resolved fluorescence (TRF) assay, genotype 3a. The class given is biochemical. Particulars: Ki 3a. The method, boiled down: (§1)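 IC50 values derive from 4-parameter fitting of TRF signal after a 6 h room-temperature cleavage of 25 nM peptide substrate by NS3/NS4A that had been pre-incubated 10 min with compound.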

For assay [2], the target named is T1, HCV genotype 1b (BK) NS3 modified enzyme with a R155K mutation (Hepatitis C virus genotype 1b, UniProt P26663, R1181K).
T1 construct: HCV genotype 1b (BK) NS3 modified enzyme
As to the kind of experiment: HCV NS3 protease time-resolved fluorescence (TRF) assay, genotype 1b R155K. Particulars: Ki 1b R155K. The class given is biochemical. The method, boiled down: as §1

Where [3] appears, read: genotype 1b (BK) NS3 R155K, single value.
Where [4] appears, read: first of two values printed in the cell (not explained).
Where [5] appears, read: second of two values printed in the cell (not explained).

Where a name gives a salt, the structure may show the parent alone.

For orientation: Ki means a measure of affinity in units of concentration, obtained from inhibition or displacement. The low end stands for a stronger hold on the target, the high end for a looser hold on the target. For `C=C[C@@H]1C[C@]1(NC(=O)[C@@H]1C[C@@H]2CN1C(=O)[C@H](C(C)(C)C)NC(=O)O[C@@H]1CCC[C@H]1CCCCCc1c(nc3ccccc3c1OCCN1CCOCC1)O2)C(=O)NS(=O)(=O)N1CCCCC1` [Example 110, (3aR,7S,10S,12R,24aR)-7-tert-butyl-N-{(1R,2S)-2-ethenyl-1-[(piperidin-1-ylsulfonyl)carbamoyl]cyclopropyl}-19-[2-(morpholin-4-yl)ethoxy]-5,8-dioxo-1,2,3,3a,5,6,7,8, 11,12,20,21,22,23,24,24a-hexadecahydro-10H-9,12-methanocyclopenta[18,19] [1,10,3,6]dioxadiaza-cyclononadecino[11,12-b] quinoline-10-carboxamide], the inhibitory constant (Ki) came out at 488 nM in assay [1] and 14 nM in assay [2] (setting [3]).

`C=C[C@@H]1C[C@]1(NC(=O)[C@@H]1C[C@@H]2CN1C(=O)[C@H](C(C)(C)C)NC(=O)O[C@@H]1C[C@H]1CCCCCc1c(nc3ccccc3c1OC1CC3CCC(C1)N3CC(F)(F)F)O2)C(=O)NS(=O)(=O)C1(C)CC1` (stereo partly drawn) [Example 275, potassium {[(1R,2S)-1-({[(1aR,5S,8S,10R,22aR)-5-tert-butyl-3,6-dioxo-17-{[8-(2,2,2-trifluoroethyl)-8-azabicyclo[3.2.1]oct-3-yl]oxy}-1,1a,3,4,5,6,9,10,18,19,20,21,22,22a-tetradecahydro-8H-7,10-methanocyclopropa[18,19][1,10,3,6]dioxadiazacyclononadecino[11,12-b]quinolin-8-yl]carbonyl}amino)-2-ethenylcyclopropyl]carbonyl}[(1-methylcyclopropyl)sulfonyl]azanide]: the figures for the inhibition constant Ki in assay [1], in assay [2] (setting [4]) and in assay [2] (setting [5]) were 16 nM, 0.11 nM and 1.15 nM, respectively.

Consider `C=C[C@@H]1C[C@]1(NC(=O)[C@@H]1C[C@@H]2CN1C(=O)[C@H](C(C)(C)C)NC(=O)O[C@@H]1C[C@H]1CCCCCc1c(nc3ccccc3c1OC1CCN(C3CC3)CC1)O2)C(=O)NS(=O)(=O)C1(C)CC1` [Example 220, (1aR,5S,8S,10R,22aR)-5-tert-butyl-17-[(1-cyclopropylpiperidin-4-yl)oxy]-N-[(1R,2S)-2-ethenyl-1-{[(1-methylcyclopropyl)sulfonyl]carbamoyl}cyclopropyl]-3,6-dioxo-1,1a,3,4,5,6,9,10,18,19,20,21,22,22a-tetradecahydro-8H-7,10-methanocyclopropa[18,19][1,10,3,6] dioxadiazacyclononadecino[11,12-b]quinoline-8-carboxamide], for which the Ki is 3.9 nM in assay [1] and 0.29 nM in assay [2] (setting [3]).

As to `C=C[C@@H]1C[C@]1(NC(=O)[C@@H]1C[C@@H]2CN1C(=O)[C@H](C1CCCC1)NC(=O)O[C@@H]1CCC[C@H]1CC/C=C/Cc1c(nc3ccccc3c1OCC(=O)O)O2)C(=O)NS(=O)(=O)C1CC1` [Example 66, {[(3aR,7S,10S,12R,21E,24aS)-7-cyclopentyl-10-({(1R,2S)-1-[(cyclopropylsulfonyl)carbamoyl]-2-ethenylcyclopropyl}carbamoyl)-5,8-dioxo-1,2,3,3a,5,6,7,8,11,12,20,23,24,24a-tetradecahydro-10H-9,12-methanocyclopenta[18,19][1,10,3,6]dioxadiazacyclononadecino[11,12-b]quinolin-19-yl]oxy}acetic acid], the Ki in assay [1] worked out at 25 nM; in assay [2] (setting [3]), 0.077 nM.

In the case of `C=C[C@@H]1C[C@]1(NC(=O)[C@@H]1C[C@@H]2CN1C(=O)[C@H](C1CCCCC1)NC(=O)O[C@@H]1C[C@H]1CCCCCc1c(nc3ccccc3c1OC1CCN(CCF)CC1)O2)C(=O)NS(=O)(=O)C1(C)CC1` [Example 272, 4-{[(1aR,5S,8S,10R,22aR)-5-cyclohexyl-8-{[(1R,2S)-2-ethenyl-1-{[(1-methylcyclopropyl)sulfonyl]carbamoyl}cyclopropyl]carbamoyl}-3,6-dioxo-1,1a,3,4,5,6,9,10,18,19,20,21,22,22a-tetradecahydro-8H-7,10-methanocyclopropa[18,19][1,10,3,6]dioxadiazacyclononadecino[11,12-b]quinolin-17-yl]oxy}-1-(2-fluoroethyl)piperidinium formate], the Ki stood at 2.12 nM in assay [1], 0.015 nM in assay [2] (setting [4]) and 0.128 nM in assay [2] (setting [5]).

Turning to `C=C[C@@H]1CC1(NC(=O)[C@@H]1C[C@@H]2CN1C(=O)[C@H](C(C)(C)C)NC(=O)O[C@@H]1C[C@H]1CCCCCc1c(nc3ccccc3c1OC1C3CNCC1COC3)O2)C(=O)NS(=O)(=O)C1(C)CC1` (single isomer, unassigned) [Example 259, trifluoroacetate], the inhibitory constant (Ki) in assay [1] came to 7.4 nM; in assay [2] (setting [4]), 0.03 nM; in assay [2] (setting [5]) it was 0.35 nM.

For the molecule `C=C[C@@H]1C[C@]1(NC(=O)[C@@H]1C[C@@H]2CN1C(=O)[C@H](C(C)(C)C)NC(=O)O[C@@H]1C[C@H]1CCCCCc1c(nc3ccccc3c1OCCCN1CCCCC1c1nc3cc(F)ccc3[nH]1)O2)C(=O)NS(=O)(=O)C1(C)CC1` (stereo partly drawn) [Example 203, (1aR,5S,8S,10R,22aR)-5-tert-butyl-N-[(1R,2S)-2-ethenyl-1-{[(1-methylcyclopropyl)sulfonyl]carbamoyl}cyclopropyl]-17-{3-[2-(5-fluoro-1H-benzimidazol-2-yl)piperidin-1-yl]propoxy}-3,6-dioxo-1,1a,3,4,5,6,9,10,18,19,20, 21,22,22a-tetradecahydro-8H-7,10-methanocyclopropa[18,19][1,10,3,6] dioxadiazacyclononadecino[11,12-b] quinoline-8-carboxamide], the Ki was found to be 4.9 nM in assay [1] and 0.13 nM in assay [2] (setting [3]).

As to `C=C[C@@H]1C[C@]1(NC(=O)[C@@H]1C[C@@H]2CN1C(=O)[C@H](C1CCCC1)NC(=O)O[C@@H]1CCC[C@H]1CC/C=C/Cc1c(nc3ccccc3c1OCCCN1CCCCC1)O2)C(=O)NS(=O)(=O)C1(C)CC1` [Example 58, (3aR,7S,10S,12R,21E,24aS)-7-cyclopentyl-N-[(1R,2S)-2-ethenyl-1-{[(1-methylcyclopropyl)sulfonyl]carbamoyl}cyclopropyl]-5,8-dioxo-19-[3-(piperidin-1-yl)propoxy]-1,2,3,3a,5,6,7,8,11,12,20,23,24,24a-tetra decahydro-10H-9,12-methanocyclopenta[18,19][1,10,3,6] dioxadiazacyclononadecino[11,12-b] quinoline-10-carboxamide], the values for the inhibition constant (Ki) in assay [1] and in assay [2] (setting [3]) were 0.57 nM and 0.1 nM, respectively.

`C=C[C@@H]1C[C@]1(NC(=O)[C@@H]1C[C@@H]2CN1C(=O)[C@H](C(C)(C)C)NC(=O)O[C@@H]1CCC[C@H]1CC/C=C/Cc1c(nc3ccccc3c1OCCn1cccc1)O2)C(=O)NS(=O)(=O)C1CC1` [Example 52, (3aR,7S,10S,12R,21E,24aS)-7-tert-butyl-N-{(1R,2S)-1-[(cyclopropylsulfonyl)carbamoyl]-2-ethenylcyclopropyl}-5,8-dioxo-19-[2-(1H-pyrrol-1-yl)ethoxy]-1,2,3,3a,5,6,7,8,11,12,20, 23,24,24a-tetradeca hydro-10H-9,12-methano cyclopenta[18,19][1,10,3,6]dioxadiazacyclo nonadecino[11,12-b]quinoline-10-carboxamide]: the Ki in assay [1] is 10 nM; in assay [2] (setting [3]), 1.1 nM.

Take `C=C[C@@H]1C[C@]1(NC(=O)[C@@H]1C[C@@H]2CN1C(=O)[C@H](C1CCCC1)NC(=O)O[C@@H]1CCC[C@H]1CC/C=C/Cc1c(nc3ccccc3c1OC)O2)C(=O)NS(=O)(=O)C1CC1` [Example 4, (3aR,7S,10S,12R,21E,24aS)-7-cyclo pentyl-N-{(1R,2S)-1-[(cyclopropylsulfonyl)carbamoyl]-2-ethenylcyclopropyl}-19-methoxy-5,8-dioxo-1,2,3,3a,5,6,7,8,11,12,20,23,24,24a-tetradeca hydro-10H-9,12-methanocyclopenta[18,19][1,10,3,6] dioxadiazacyclononadecino[11,12-b]quinoline-10-carboxamide]: the results for the Ki in assay [1] and in assay [2] (setting [3]) were 3.4 nM and 0.11 nM, respectively.

Consider `C=C[C@@H]1C[C@]1(NC(=O)[C@@H]1C[C@@H]2CN1C(=O)[C@H](C1CCCC1)NC(=O)O[C@@H]1CCC[C@H]1CC/C=C/Cc1c(nc3ccccc3c1OCCCn1cccc1)O2)C(=O)NS(=O)(=O)C1(C)CC1` [Example 55, (3aR,7S,10S,12R,21E,24aS)-7-cyclopentyl-N-[(1R,2S)-2-ethenyl-1-{[(1-methylcyclopropyl)sulfonyl]carbamoyl}cyclopropyl]-5,8-dioxo-19-[3-(1H-pyrrol-1-yl)propoxy]-1,2,3,3a,5,6,7,8,11,12,20,23,24,24a-tetradecahydro-10H-9,12-methanocyclopenta[18,19][1,10,3,6] dioxadiazacyclononadecino[11,12-b] quinoline-10-carboxamide], for which the results for the inhibitory constant (Ki) in assay [1] and in assay [2] (setting [3]) were 3.9 nM and 0.22 nM, respectively.

Take `C=C[C@@H]1C[C@]1(NC(=O)[C@@H]1C[C@@H]2CN1C(=O)[C@H](C(C)(C)C)NC(=O)O[C@@H]1C[C@H]1CCCCCc1c(nc3ccccc3c1OCCN1CC(O)C1)O2)C(=O)NS(=O)(=O)C1(C)CC1` [Example 174, (1aR,5S,8S,10R,22aR)-5-tert-butyl-N-[(1R,2S)-2-ethenyl-1-{[(1-methylcyclopropyl)sulfonyl]carbamoyl}cyclopropyl]-17-[2-(3-hydroxyazetidin-1-yl)ethoxy]-3,6-dioxo-1,1a,3,4,5,6,9,10,18,19,20,21,22,22a-tetradecahydro-8H-7,10-methanocyclopropa[18,19][1,10,3,6] dioxadiazacyclononadecino[11,12-b] quinoline-8-carboxamide]: the values for the inhibition constant (Ki) in assay [1] and in assay [2] (setting [3]) were 1.1 nM and 0.057 nM, respectively.
